Data published in paper PMC4818757, “Small molecule inhibitors of the Dishevelled‐CXXC5 interaction are new drug candidates for bone anabolic osteoporosis therapy” (EMBO Molecular Medicine, 2016).
Where two headings read alike, the source gives them in different places.

How the values were obtained:
[1] = target: T1, Dvl–CXXC5 interaction (Homo sapiens, UniProt O14640); experiment: Dvl–CXXC5 in vitro binding assay (FITC PolyR-DBM competition)
T1 construct: plasmid DNA encoding Dvl-1247- 341 (the Dvl PDZ domain); His-tag (TEV-cleavable) (cleaved yes); made in house; host or cells: E. coli BL21 (DE3)
T1 sequence (O14640 247-341 limits assumed): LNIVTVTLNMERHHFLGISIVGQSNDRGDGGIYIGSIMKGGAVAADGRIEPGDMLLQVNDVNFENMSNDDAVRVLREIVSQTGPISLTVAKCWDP
Excerpt: We tried to search small‐molecule drug candidates activating the Wnt/β‐catenin signaling on the basis of the previous study (Kim et al, 2015). To screen small molecules inhibiting the Dvl–CXXC5 interaction, an in vitro assay system (Fig 1A) was established using purified recombinant Dvl PDZ domain and FITC‐conjugated PolyR‐DBM (Dvl binding motif) (Kim et al, 2015). A chemical with inhibitory activity of Dvl–CXXC5 interaction competes with the FITC‐conjugated peptide for binding to Dvl PDZ domain, which results in a decrease in fluorescence intensity of the well containing the chemical (Fig 1A).
Figure 1 Identification and characterization of small molecules competing Dvl–CXXC5 binding in vitro • A A scheme for in vitro screening method of small molecules competing Dvl–CXXC5 binding. Briefly, purified Dvl PDZ domain was attached to the polystyrene surface of each well of 96‐well plates. Then, PolyR‐DBM (polyarginine‐conjugated Dvl binding motif tagged with FITC) (Kim et al, 2015) was added to each well and allowed to bind to the Dvl PDZ domain; 10 μM small‐molecule compound was added to each well, and the compounds competing with Dvl PZD‐PolyR‐DBM binding were measured by a microplate reader to screen the compounds reducing fluorescence signal. • B Screening results of compounds competing Dvl–CXXC5 interaction. Each 2 μM of the compounds was used for competing as described in Fig 1A. (n = 3) • C, D Primary calvaria cells were treated with 2 μM of each compound for 2 days. The cells were subjected to immunofluorescence analyses to visualize β‐catenin (C; green). The relative numbers of β‐catenin‐positive nuclei were counted (D). (n = 3) • E, F The calvariae from 4‐day‐old mice were cultured ex vivo for 7 days with 2 μM of each compound. Representative calvaria sections were visualized by H&E staining (E). The calvaria thicknesses were measured from the images using Image Pro software (F). (n = 3) Data Information: For B, D, and F, the data are the mean ± s.d. (error bars), and significance was assessed using unpaired Student's t‐test.
For the Dvl–CXXC5 in vitro binding assay, 100 μl of 5 mg/ml purified Dvl PDZ domain was added into each well of a 96‐well Maxibinding Immunoplate (SPL, Seoul, Korea) and incubated overnight in a 4°C chamber. […] After washing with PBS, the fluorescence of each well was measured using a Fluorstar Optima microplate reader (BGM Lab Technologie, Ortenberg, Germany). […]
a The Dvl-CXXC5 in vitro binding assay was performed with 0.1, 1, 3, 10, 30 and 100 µ M of each compound. The IC50 values were calculated using linear regression. b MC3T3E1 cells were cultured in differentiation media with 10 µM of each compound for 4 days and ALP activity levels were quantified to monitor osteogenic differentiation of the cells. […]

[2] = tested on: MC3T3E1 cells; experiment: Relative ALP activity in MC3T3E1 cells; type: cell-based, murine; conditions: differentiation media, 10 M of each compound, 4 days
Excerpt: Railo et Rev: [NT] al, 2009 Fos-like antigen 1 […] et al, 2003 WNT1 inducible [NT] Railo et signaling pathway Rev: [NT] al, 2009 protein 1 (Wis p1) Activating […] transcription factor Rev: […], 4 (Atf 4) 2007 Cyclin-dependent [NT] Donovan TGFβ kinase inhibitor 1B Rev: [NT] et al, 2002 (Cdkn1b) […] membrane Rev: […], protein 1 (Emp1) 2007 8

[3] = Metabolic stability, rat liver microsomes; type: in vitro ADME
[4] = Metabolic stability, human hepatocytes; type: in vitro ADME

CCOC(=O)Cn1c(C(=O)OCC)cc2cc(OS(=O)(=O)c3ccc(C)cc3)ccc21 [KY‐02061]
reduction of fluorescence intensity ([1]; 2 μM compound): 43.7% | IC50 ([1]; read-out: 50% inhibition concentration (IC50) of Dvl–CXXC5 interaction): 24 µM | Relative ALP activity (%) [2]: 173% | Metabolic Stability (%) Rat [3]: 5.1 ± 2.4% | metabolic stability (in words) [3]: poor metabolic stability | Metabolic Stability (%) Human [4]: 25.2 ± 3% | metabolic stability (in words) [4]: poor metabolic stability

CCOC(=O)c1cc2cc(O)ccc2n1CC(=O)NCCN1CCCCC1 [KY‐02327]
IC50 ([1]; 0.1, 1, 3, 10, 30 and 100 µM of each compound, linear regression, read-out: Dvl-CXXC5 in vitro binding IC50): 3.1 µM | IC50 for inhibition of Dvl–CXXC5 interaction, fold lower than for KY‐02061 ([1]; vs KY‐02061): 7.7 fold | Relative ALP activity (%) [2]: 227% | Metabolic Stability (%) Rat [3]: 11.9% | stability, fold more stable than KY‐02061 [3]: 2.3 fold | stability, fold more stable than KY‐02061 [4]: 1.3 fold
